Source: patent US20100293626A1, “METHODS FOR IMPROVEMENT OF BIRTH RATES IN CANIDAE ON SOMATIC CELL NUCLEAR TRANSFER” (SEOUL NATIONAL UNIVERSITY INDUSTRY FOUNDATION, priority 2007, published 2010)

Columns and labels:
[1] = tested on: reconstructed oocytes (canine cloned embryos); experiment: Nuclear remodeling of reconstructed oocytes after somatic cell nuclear transfer with roscovitine-treated donor cells; type: cell-based, dog
Method: Before performing somatic cell nuclear transfer, the cells were thawed and cultured for 24 hours in a medium supplemented with 15 μM roscovitine (i.e., DMEM+10% FBS+15 μM roscovitine). Then, the cells were treated with trypsin for about 2 minutes during somatic cell nuclear transfer and collected from the monolayer.
The nuclear donor cells prepared in Example 3 were microinjected into the enucleated oocytes prepared in Example 2. The nuclear donor cells were microinjected into a perivitelline space of the enucleated oocytes in the following manner. The enucleated oocytes were treated with […] phytohemagglutinin in the medium of Table 1, and the slit of the enucleated oocytes was held with a holding pipette. Then, a transfer pipette was inserted into the slit, and the single cells isolated from fibroblasts in Example 3 were injected between the cytoplasm and zona pellucida of the enucleated oocytes by the transfer pipette.
Then, the nuclear donor cell-oocyte couplets were placed in a fusion medium (containing 0.26 M mannitol, 0.1 mM MgSO4, 0.5 mM HEPES and 0.05% BSA) and interposed between two parallel electrodes attached to a micromanipulator (Nikon-Narishige, Japan). Then, the fusion of the couplets was induced by electrical stimulation applied twice at a voltage of 4 kV/cm for 15 μs using an electro-cell fusion apparatus (NEPA GENE Co., Chiba, Japan).
After 1 hour of electrical stimulation, the fusion of the nuclear donor cells with the oocyte cytoplasm was observed under a stereomicroscope. The fused embryos were selected and cultured for 1.5-4 hours in TCM-199 (Table 2) supplemented with 10% (v/v) FBS.
The nuclear transfer embryos obtained in Example 4 were cultured in mSOF containing 10 μM ionophore (Sigma) at 39° C. for 4 minutes, thus inducing the activation of the nuclear transfer embryos. Then, the nuclear transfer embryos were washed and further cultured in mSOF (Table 3) supplemented with 1.9 mM 6-dimethylaminopurin for 4 hours.
After performing canine somatic cell nuclear transfer into the enucleated oocytes using the microinjection method, the difference in the formation and change of nuclei between a control group not treated with roscovitine and a group treated with roscovitine for 24 hours, was examined.

[2] = tested on: surrogate mothers; experiment: Pregnancy rate after transfer of nuclear transfer embryos into surrogate mothers; type: in vivo, dog
Method: The nuclear transfer embryos from Example 5 were surgically transferred into the oviduct of estrus synchronized surrogate mothers. The transfer was carried out within 4 hours after the activation of the nuclear transfer embryos. […] For the transfer, the surrogate mothers were anesthetized by vascular injection with 0.1 mg/kg acepromazine and 6 mg/kg propofol, and maintained at the anesthetized state using 2% isoflurane. Operation area of the anesthetized female dogs was aseptically operated and incised on the center of the abdomen according to general laparotomy so as to expose the oviduct. The abdominal cavity was stimulated by hand to draw the ovary, the oviduct and the uterus to the incision. The mesovarium of the drawn ovary was carefully handled to recognize the opening of the oviduct, and a 3.5 F Tom cat catheter (Sherwood, St. Louis, Mo.) equipped with a 1.0 ml tuberculin syringe (Latex free, Becton Dickinson & CO. Franklin lakes, N.J. 07417) was inserted into the oviduct to secure a sufficient space in the front of the catheter. Then, the nuclear transfer embryos were injected into the oviduct through the catheter. Whether the nuclear transfer embryos were successfully injected was observed under a microscope. The abdominal suture was performed with an absorbable suture material, and then, skin suture was performed. To prevent post-surgery infection, a broad range of antibiotic was injected for 3 days.
At 23 days after transferring the nuclear transfer embryos into the surrogate mothers, pregnancies were detected using a SONOACE 9900 (Medison Co. LTD, Seoul, Korea) ultrasound scanner with an attached 7.0 MHZ linear probe. Pregnancy was monitored by ultrasound every 2 weeks after initial confirmation. As a result, it was confirmed that the dogs had become pregnant, and the cloned dogs were produced by inducing natural delivery or performing Cesarean section. […]

[3] = 1 hpf, donor cells treated with roscovitine for 24 hours
[4] = 4 hpa, donor cells treated with roscovitine for 24 hours

CC[C@@H](CO)Nc1nc(NCc2ccccc2)c2ncn(C(C)C)c2n1 [roscovitine]
No. of reconstructed oocytes with IN (intact nucleus) ([1]; 1 hpf (hour post fusion), donor cells treated with roscovitine for 24 hours): 11 | IN (%) for reconstructed oocytes [1, 3]: (32.3 ± 7.0) % | No. of reconstructed oocytes with NE (nuclear enlargement) [1, 3]: 0 | No. of reconstructed oocytes with NS (nuclear swelling) [1, 3]: 0 | No. of reconstructed oocytes with PCC (premature chromosome condensation) [1, 3]: 23 | PCC (%) for reconstructed oocytes [1, 3]: (67.6 ± 7.0) % | No. of reconstructed oocytes with IN (intact nucleus) ([1]; 4 hpa (hour post activation), donor cells treated with roscovitine for 24 hours): 0 | NE (%) for reconstructed oocytes [1, 4]: (23.6 ± 7.5) % | NS (%) for reconstructed oocytes [1, 4]: (73.6 ± 7.5) % | No. of reconstructed oocytes with NE (nuclear enlargement) [1, 4]: 9 | No. of reconstructed oocytes with NS (nuclear swelling) [1, 4]: 28 | No. of reconstructed oocytes with PCC (premature chromosome condensation) [1, 4]: 1 | PCC (%) for reconstructed oocytes [1, 4]: (2.6 ± 3.3) % | Nuclear swelling (NS) compared with control group, in words ([1]; 4 hours after activation of the fused embryos): occurred more in the treated group than in the control group | Rate of premature chromosome condensation (PCC) compared with control group, in words ([1]; after electrical fusion (1 hour elsewhere in the source)): at a rate significantly higher than that in the control group | No. of pregnant mothers ([2]; 556 embryos transferred into 29 surrogate mothers, donor cells treated with roscovitine): 11 | Pregnancy rate (based on transfer embryos) ([2]; 556 transfer embryos): 3.95% | Pregnancy rate compared with control, in words ([2]; somatic cell nuclear transfer after treatment with roscovitine): very significantly increased
